From patent US4747845A, “Synthetic resin matrix system for the extended delivery of drugs” (priority 1986, dated 1988)

Tests used:
[1] = dog, in vivo
Procedure: The derived pharmacokinetic parameters included: 1, time for the maximum concentration to be reduced by 1/2 (t-1/2); 2, area under the plasma concentration curve (AUC); 3, maximum plasma concentration (C-max); 4, time to reach C-max (t-max); 5, mean resident time (MRT); and 6, percent of recovery of administered H3 dose in urine in 72 hours (U%).
Here, determination was made of the release characteristics of the DIMAC synthetic resin matrix system embodied with the drug urapidil fumerate (UPD) following oral administration to conscious dogs, in an identical procedure to that described in EXAMPLE 4.
The UPD dose administered in DIMAC matrix was 10 mg/kg, and the same dose was used in the control solution.

[2] = dog, in vivo, po
Procedure: Approximately 75 uCi of isotopically labelled DTZ or UPD was blended into their respective slurry prior to filling the gelatin capsule. The isotopically labelled compositions were allowed to set-up prior to rejoining the filled upper and lower capsule compartments. Curing proceeded overnight, with animal dosing performed at 8:00 a.m. the following morning. The control DIMAC matrix samples without drug were prepared in an identical manner.
Six conscious dogs, three males and three females, one of each sex in three treatment groups were used in this study. The oral dose of DTZ was 30 mg/kg, while that for UPD was 10 mg/kg.
Blood samples were drawn at 0-time immediately prior to dosing, and at 0.5, 1.0, 2.0, 4.0, 6.0, 8.0, 24, and 32 hours after oral administration of the three test preprations. One ml of plasma, suitably prepared was counted for 5-minutes for level of radioactivity (dpm).

magnitude of delayed and extended duration release indices compared with EXAMPLE 3 [1] | percent change of t1/2 of DIMAC from solution control [1] | percent change of U % (recovery of administered dose in urine in 72 hours) of DIMAC from solution control ([1]; 4320 min) | percent of dose released from DIMAC matrix during the 8-hour period [2] | time of peak plasma radioactivity ([2]; 10 mg/kg) | Substance | statistical significance of change over solution control [1]
far less | +40% | +8% | – | – | urapidil fumerate [DIMAC matrix UPD] | statistically significant change in C-max, t-max, MRT, and t-1/2
– | – | – | at least 50% | 2 h | urapidil fumerate [UPD] | –
